“And” between values parts separate entries of the source, which are not always exact repeats. Equal values may be shown once. Read-outs that look alike come from different tables or passages of the source.
How the values were obtained:
[1] = target: panel of 485 distinct kinases; assay: Kinase selectivity panel (SelectScreen); format: biochemical
[2] = Stability in mouse liver microsomes; format: in vitro ADME; conditions: for half-life: mouse, liver microsomes, read-out: MLM Stability t1/2
[3] = Metabolic stability in dog hepatocytes
P-gp (MDR1) = assay: in vitro; conditions: dog
in vitro = conditions: dog
MDR1 (P-gp) = assay: in vitro; conditions: dog
[4] = Brain tissue binding, rapid equilibrium dialysis; format: in vitro ADME, mouse; conditions: for fraction unbound at 5 h, 10 µM: brain homogenate
CYP2B6 = target: T1, CYP2B6 (Homo sapiens, UniProt P20813); assay: CYP450 inhibition in HLM
T1 sequence (P20813 1-491): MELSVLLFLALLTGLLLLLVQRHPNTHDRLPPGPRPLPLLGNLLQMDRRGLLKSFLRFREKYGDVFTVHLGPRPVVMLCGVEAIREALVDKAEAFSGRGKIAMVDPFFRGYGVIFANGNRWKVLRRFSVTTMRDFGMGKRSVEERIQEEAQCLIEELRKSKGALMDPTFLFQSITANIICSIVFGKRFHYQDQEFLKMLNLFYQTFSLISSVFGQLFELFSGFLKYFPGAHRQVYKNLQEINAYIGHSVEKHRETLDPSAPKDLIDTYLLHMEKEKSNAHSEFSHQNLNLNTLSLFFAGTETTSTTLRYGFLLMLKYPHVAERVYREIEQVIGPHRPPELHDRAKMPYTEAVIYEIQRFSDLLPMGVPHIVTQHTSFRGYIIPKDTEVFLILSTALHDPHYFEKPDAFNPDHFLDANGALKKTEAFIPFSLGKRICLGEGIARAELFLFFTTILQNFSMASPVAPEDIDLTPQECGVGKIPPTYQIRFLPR

Wnt signaling = assay: TCF/LEF reporter (Luciferase) assay in the absence of Notum; format: cell-based; conditions: up to 10 μM; n = 4
Procedure: Figure S10. Notum TCF/LEF reporter (Luciferase) data with WNT3A (100 ng/mL) in the absence of Notum.
Examples are from different
Additional inhibition -concentration curves for compounds 6-9 will be made available upon reasonable request.

[5] = Metabolic stability in rat hepatocytes
nAChR(a4/b2) = target: T2, nAChR(a4/b2) (Homo sapiens, UniProt P17787+P43681); assay: Safety47 nAChR(a4/b2) antagonist assay; format: cell-based
T2 construct: Eurofins (DiscoverX Safety47)
Procedure: Screening for off-target pharmacology across multiple drug target classes was performed in the DiscoverX Safety47 panel as the SAFETYscan E/IC50 ELECT service by Eurofins (San Diego CA, U.S.A.). Assay information and data are presented in the Supporting Information.
Safety pharmacology studies
Screening for off-target pharmacology across multiple drug target classes was performed in the DiscoverX Safety47™ panel as the SAFETYscan E/IC50 ELECT service by eurofins (San Diego CA, U.S.A.). The assays were performed utilizing the PathHunter enzyme fragment complementation (EFC) technology, FLIPR®-based cellular screening assays, KINOMEscan kinase binding assays, and a variety of enzymatic assays (78 assays).

in vivo = assay: in vivo; set-up: species or system mouse
Procedure: Mouse pharmacokinetic (PK) data was generated at Charles River Laboratories (Groningen, Netherlands) and GVK
Biosciences (Hyderabad, India). Rat PK was performed by WuXi AppTec (Shanghai, China).
Animal Testing Declaration: All in life phase studies were conducted in accordance with local Ethics Review
process. See, statements from each company.

serine hydrolases = assay: ABPP-TMT serine hydrolase selectivity in SW620 cells; conditions: SW620 conditioned media and cell lysates
[6] = Permeability using Caco-2 cell monolayer; conditions: human
[7] = Brain tissue binding, rapid equilibrium dialysis; format: in vitro ADME, rat
Procedure: Method: rapid equilibrium dialysis.
Test System Mouse Brain Homogenate 10% w/v in PBS
Incubation Time 5 h (mouse) or 4 h (rat)
No. of Replicates Two (mouse) or three (rat)
Buffer Phosphate buffer saline, pH 7.4
% Unbound in brain % Bound in brain %
Compound Species / Matrix homogenate SD homogenate Recovery

[8] = Stability in human liver microsomes; format: in vitro ADME; conditions: for half-life: human, liver microsomes, read-out: HLM Stability t1/2
[9] = MDCK-MDR1, MDCK-MDR1 AB Papp, apical to basal
[10] = MDCK-MDR1, MDCK-MDR1 BA Papp, basal to apical
[11] = male C57BL6 mice, i.v. 1.0 mg/kg

T2 sequence (P43681 29-627 limits assumed): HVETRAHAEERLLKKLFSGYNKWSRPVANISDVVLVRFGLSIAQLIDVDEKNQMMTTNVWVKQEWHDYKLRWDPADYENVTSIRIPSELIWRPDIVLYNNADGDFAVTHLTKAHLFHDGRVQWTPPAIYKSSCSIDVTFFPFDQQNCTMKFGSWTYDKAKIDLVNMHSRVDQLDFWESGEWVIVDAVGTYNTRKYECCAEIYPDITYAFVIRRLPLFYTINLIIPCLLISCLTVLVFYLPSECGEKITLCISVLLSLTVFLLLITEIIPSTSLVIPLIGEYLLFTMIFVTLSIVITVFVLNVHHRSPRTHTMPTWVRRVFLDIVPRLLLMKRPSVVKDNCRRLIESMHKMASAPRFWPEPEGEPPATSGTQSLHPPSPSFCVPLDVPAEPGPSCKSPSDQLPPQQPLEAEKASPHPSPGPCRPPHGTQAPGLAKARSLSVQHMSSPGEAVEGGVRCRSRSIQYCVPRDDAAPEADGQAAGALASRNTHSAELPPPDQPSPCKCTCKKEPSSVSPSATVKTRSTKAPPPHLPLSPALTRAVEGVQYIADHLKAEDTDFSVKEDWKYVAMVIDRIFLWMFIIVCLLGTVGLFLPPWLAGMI
T2 sequence (P17787 26-502): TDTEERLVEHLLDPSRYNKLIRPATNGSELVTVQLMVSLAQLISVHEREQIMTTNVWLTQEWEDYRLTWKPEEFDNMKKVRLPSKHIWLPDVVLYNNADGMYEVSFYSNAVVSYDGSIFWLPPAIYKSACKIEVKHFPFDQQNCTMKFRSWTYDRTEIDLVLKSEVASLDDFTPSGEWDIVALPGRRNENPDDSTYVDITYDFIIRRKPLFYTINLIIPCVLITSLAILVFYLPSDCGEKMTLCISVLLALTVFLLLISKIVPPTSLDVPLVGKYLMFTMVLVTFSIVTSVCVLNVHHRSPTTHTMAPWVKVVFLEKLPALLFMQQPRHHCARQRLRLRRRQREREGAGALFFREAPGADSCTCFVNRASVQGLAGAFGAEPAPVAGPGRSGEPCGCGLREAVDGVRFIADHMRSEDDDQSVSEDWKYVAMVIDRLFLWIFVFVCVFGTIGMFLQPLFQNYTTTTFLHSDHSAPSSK

FC(F)(F)c1c(Cl)ccc(-n2ccnn2)c1Cl [8l, 1-(2,4-Dichloro-3-(trifluoromethyl)phenyl)-1H-1,2,3-triazole]
kinases with >50% inhibition ([1]; @10 μM): 0/485
inhibition for all kinases of the panel ([1]; at 10 μM): < 50%
MLM Cli [2]: 3.2 μL/min/mg protein
Liver microsome stability Cli, MLM ([2]; additional study (Table 5)): 11.7 μL/min/mg protein
half-life ([2]; Table S4): 2 h
half-life ([2]; Table S8): 1.97 h
half-life [3]: > 3.61 h
hepatocyte CLint [3]: < 6.4 µL/min/1e6 cells
Papp (P-gp (MDR1); [9]): 31.4 ×10⁻⁶ cm/s
Papp (P-gp (MDR1); [10]): 39.2 ×10⁻⁶ cm/s
Papp (in vitro; [9]): 31 ×10⁻⁶ cm/s
Papp (in vitro; [10]): 39 ×10⁻⁶ cm/s
recovery (MDR1 (P-gp); MDCK-MDR1, MDR1-MDCKII A to B % Recovery): 85.1%
recovery (MDR1 (P-gp); MDCK-MDR1, MDR1-MDCKII B to A % Recovery): 90.5%
fraction unbound at 5 h, 10 µM ([4]; 10% w/v in PBS, pH 7.4, mouse, 10 µM, 5 h, read-out: % Unbound in brain homogenate, mean): 0.0298
Brain binding, % bound ([4]; mouse brain homogenate): 97.0%
fraction unbound at 5 h, 10 µM ([4]; mouse, 10% w/v in PBS, pH 7.4, mouse brain homogenate, read-out: Brain binding, % bound (converted)): 0.0298
recovery at 5 h, 10 µM ([4]; mouse, mouse brain homogenate, 10% w/v in PBS, pH 7.4): 107%
IC50 (CYP2B6): 3.15 µM
IC50 (CYP2B6; read-out: CYP inhibition IC50, 2B6, HLM): 5.2 µM
IC50 (CYP2B6; read-out: IC50 CYP2B6/Bupropion, (+)NADPH pre-incubation): 5.21 µM
Wnt response in the absence of Notum (Wnt signaling): maximal Wnt response at all concentrations tested
half-life [5]: 2.78 h
hepatocyte CLint [5]: 8.3 µL/min/1e6 cells
IC50 (nAChR(a4/b2); Figure S14, read-out: nAChR(a4/b2) antagonist RC50): 10.2 µM
IC50 (nAChR(a4/b2); read-out: nAChR(a4/b2) IC50): 10 µM
CL (in vivo; [11]): 10.4 mL/min/kg
Vdss (in vivo; [11]): 2.0 L/kg
AUC(0-inf) (in vivo; mouse, 2x30 mg/kg po, plasma): 83400 ng·h/mL
AUC(0-t) (in vivo; mouse, 2x30 mg/kg po, plasma): 82400 ng·h/mL
half-life (in vivo; mouse, 2x30 mg/kg po, plasma): 2.97 h
Tmax (in vivo; mouse, 2x30 mg/kg po, plasma, read-out: Tmax): 9.5 h
concentration at 10 h (in vivo; mouse, brain, po, mouse 2x30 mg/kg po, read-out: Brain concentration, individual animal): 7250 ng/g
Fo (in vivo; mouse, p.o. 10 mg/kg): 66%
brain Cmax (free drug) (in vivo; mouse, p.o. 10 mg/kg): ≈ 300 nM
Tmax (in vivo; mouse, p.o. 10 mg/kg, brain): 1.0 h
t1/2 (in vivo; mouse, p.o. 10 mg/kg, brain): 2.2 h
time brain levels maintained above 100 nM (in vivo; mouse, p.o. 10 mg/kg, free drug): ~4 h
Tmax (in vivo; mouse, p.o. 10 mg/kg, plasma): 0.5 h
concentration at 0.5 h (in vivo; mouse, plasma, po, mouse 2x30 mg/kg po, 0.5 hr, read-out: Plasma concentration, individual animal): 5090 ng/mL
concentration at 1 h (in vivo; mouse, plasma, po, mouse 2x30 mg/kg po, 1 hr, read-out: Plasma concentration, individual animal): 4920 ng/mL
concentration at 2 h (in vivo; mouse, plasma, po, mouse 2x30 mg/kg po, 2 hr, read-out: Plasma concentration, individual animal): 4000 ng/mL
concentration at 4 h (in vivo; mouse, plasma, po, mouse 2x30 mg/kg po, 4 hr, read-out: Plasma concentration, individual animal): 3180 ng/mL
concentration at 9 h (in vivo; mouse, plasma, po, mouse 2x30 mg/kg po, 9 hr, read-out: Plasma concentration, individual animal): 645 ng/mL
concentration at 9.25 h (in vivo; mouse, plasma, po, mouse 2x30 mg/kg po, 9.25 hr, read-out: Plasma concentration, individual animal): 5940 ng/mL
concentration at 9.5 h (in vivo; mouse, plasma, po, mouse 2x30 mg/kg po, 9.5 hr, read-out: Plasma concentration, individual animal): 7570 ng/mL
concentration at 10 h (in vivo; mouse, plasma, po, mouse 2x30 mg/kg po, read-out: Plasma concentration, individual animal): 6270 ng/mL
concentration at 11 h (in vivo; mouse, plasma, po, mouse 2x30 mg/kg po, 11 hr, read-out: Plasma concentration, individual animal): 6850 ng/mL
Cross reactivity (other serine hydrolases detected) (serine hydrolases): no cross reactivity against any of the other 39 serine hydrolases detected and 0/39
recovery at 2 h, 2 µM ([6]; Caco-2, pH 7.4, Caco-2 A to B % Recovery): 89.1%
Papp at 2 h, 2 μM ([6]; Caco-2, pH 7.4, Caco-2 AB Papp, apical to basal): 49.4 ×10⁻⁶ cm/s
recovery at 2 h, 2 µM ([6]; Caco-2, pH 7.4, Caco-2 B to A % Recovery): 102%
Papp at 2 h, 2 μM ([6]; Caco-2, pH 7.4, Caco-2 BA Papp, basal to apical): 30.3 ×10⁻⁶ cm/s
fraction unbound at 4 h, 2 µM ([7]; brain homogenate, pH 7.4, SD rat, 4 h): 0.029
recovery at 4 h, 2 µM ([7]; pH 7.4, SD rat brain homogenate): 86.8%
Brain binding, % bound ([7]; rat brain homogenate): 97.1%
HLM Cli [8]: 1.5 μL/min/mg protein
Liver microsome stability Cli, HLM ([8]; additional study (Table 5)): < 9.6 μL/min/mg protein
half-life ([8]; Table S4): 2 h
half-life ([8]; Table S8): > 2.42 h
